# Laboratory results reported in US6534056B1, “Therapeutic and diagnostic uses of protein tyrosine phosphatase TC-PTP” (McGill University, priority 1998, dated 2003).
# What was measured:
# EFM7+/+ cells = experiment: Survival (MTT conversion) 24 h after methyl methane-sulfonate treatment, wild-type cell line; format: cell-based, murine; conditions: 5 μM MMS, 24 h after treatment, FIG. 5D
# Experimental: (§1) Cell proliferation and survival. Primary MEF+/+ and −/−, and TC-PTP+/+ and TC-PTP−/− cell, lines were seeded in 24-well cell culture plates at a density of […] in DMEM with 10% FBS. Cell number was determined after trypsinization by trypan blue exclusion or by MTT assay (Mosmann (1983) J. Immunol. Methods. 62:55-63) at day 1, 3, 5 and 7 after plating. Cells were treated with gamma- or UV-irradiation at doses indicated using a Gammacell 1000 (Atomic Energy of Canada) with a 137Cs source and Stratalinker (Stratagene) respectively. After irradiation, the cells were plated in triplicate on 24-well plates. Survival was evaluated by MTT viability assays 48 hr post-radiation.
# (§2) The function of cell cycle checkpoints is to verify the physical status of the genomic DNA. […] To assess the effects of DNA-damaging agents such as γ-radiation, UV-C radiation and methyl methane-sulfonate (MMS) treatment on TC-PTP−/− cells, we first evaluated at different times after treatment, the effect of 1000 rads of γ-radiation on the survival of the EFM7+/+, EFM3+/− and EFM4−/− cells. […] Conversion of MTT was evaluated as a measure of survival at 8, 24 and 48 h after the treatment and it is expressed as the percentage of OD570 measurements of treated to untreated wells. […]
# (§3) Another DNA-damaging agent used was MMS, which is a DNA alkylating agent that results in single-strand breaks. […] Results are expressed as in A.
# EFM4−/− cells = experiment: Survival (MTT conversion) 24 h after methyl methane-sulfonate treatment, TC-PTP knock-out cell line; format: cell-based, murine; conditions: 5 μM MMS, 24 h after treatment, FIG. 5D
# Experimental: as §1, §2, §3
smiles,measurement,setting,value
"COS(C)(=O)=O [MMS, methyl methane-sulfonate]",viability after MMS treatment,EFM7+/+ cells,slight decrease
same,viability after MMS treatment,EFM4−/− cells,strong decrease in the viability
